The text below walks through data of patent publication US8952177B2 (Janssen Pharmaceutica NV, priority 2013, dated 2015).

Molecules are shown by their SMILES. Structures can show the parent of a compound that is named as a salt.

In one test the target is human FLAP (Homo sapiens (Human), UniProt P20292). Description: FLAP binding assay (HTRF format). The settings on record: human FLAP-containing Sf-9 membranes, 25 nM HTRF ligand, 2 h; average of runs; read-out: FLAP Binding wild type HTRF Ki. The protocol: The ability of the compounds of the present invention to treat a FLAP-mediated disease and/or disorder, or associated symptoms or complications thereof, was determined using the following procedures. Binding assay data represent the average value obtained from two different assay plates, with samples run in duplicate on each plate. Human whole blood assay data represent a single replicate on an assay plate using whole blood from at least one healthy donor.
Chain of human FLAP (P20292 whole entry): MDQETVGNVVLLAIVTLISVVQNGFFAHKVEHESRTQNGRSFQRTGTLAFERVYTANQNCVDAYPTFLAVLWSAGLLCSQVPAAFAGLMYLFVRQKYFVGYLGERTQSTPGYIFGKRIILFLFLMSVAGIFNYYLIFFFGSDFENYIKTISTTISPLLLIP
The assay below is used to test the modulatory activity of compounds against FLAP. Human and mouse FLAP-encoding DNA was amplified by polymerase chain reaction and cloned into pFastBacl (Invitrogen) with a NH2-terminal 6-His tag for expression in Spodoptera frugiperda (Sf-9) cells. FLAP-containing membranes were prepared as was a FITC-labeled FLAP modulator (3-(3-(tert-butylthio)-1-(4-chlorobenzyl)-5-(quinolin-2-ylmethoxy)-1H-indol-2-yl)-2,2-dimethylpropanoic acid). The FLAP binding assay is performed in HTRF format (homogeneous time resolved fluorescence). […] The reaction is allowed to proceed for two hours after which the plate is read on an Envision plate reader in HTRF mode. Data are expressed as a HTRF ratio.
For human FLAP binding assays, data are analyzed with 3DX Explorer software. […] For analysis, data from multiple runs are averaged and each compound may be tested in 2 to 20 runs. Each run comprises two plates and each plate includes duplicates. Data from each plate is averaged and data are imported into 3DX. The data from multiple runs are aggregated as the average of duplicates of the calculated ratios in order to calculate Ki and IC50 values. Numbers in parentheses are the number of runs for the assay.
In the case of `Cc1ccc(COc2ccc3nc(C4CCCC[C@@H]4C(=O)O)n(Cc4ccc(C#N)cc4)c3c2)nc1` (mixture of isomers) [Example 18, racemic trans-2-{1-(4-Cyanobenzyl)-6-[(5-methylpyridin-2-yl)methoxy]-1H-benzimidazol-2-yl}cyclohexanecarboxylic acid as the TFA salt], the inhibitory constant (Ki) (in general, the dissociation constant of the complex between target and ligand, obtained from inhibition or displacement) was 0.053 µM.

For `Cc1ccc(COc2ccc3nc(C4CCCC[C@H]4C(=O)O)n(Cc4ccc(C#N)cc4)c3c2)nc1` (mixture of isomers) [Example 37, racemic cis-2-{1-(4-Cyanobenzyl)-6-[(5-methylpyridin-2-yl)methoxy]-1H-benzimidazol-2-yl}cyclohexanecarboxylic acid as the TFA salt], the Ki is 0.026 µM.

`Cc1ccc(COc2cc3c(cc2Cl)nc([C@H]2CCCC[C@H]2C(=O)O)n3Cc2ccc(OC(F)(F)F)cc2F)nc1` (racemic) [Example 110, racemic cis-2-{5-Chloro-1-[2-fluoro-4-(trifluoromethoxy)benzyl]-6-[(5-methylpyridin-2-yl)methoxy]-1H-benzimidazol-2-yl}cyclohexanecarboxylic acid as the HCl salt]: the Ki is 0.92 µM.

For the compound `Cn1ccc(COc2ccc3nc([C@@H]4[C@@H](C(=O)O)C4(C)C)n(Cc4ccc(Br)cc4)c3c2)n1` (racemic) [Example 117, racemic trans-3-{1-(4-Bromobenzyl)-6-[(1-methyl-1H-pyrazol-3-yl)methoxy]-1H-benzimidazol-2-yl}-2,2-dimethylcyclopropanecarboxylic acid as the TFA salt], the Ki is about 1.88 µM.

With `Cc1cccc(COc2ccc3nc([C@@H]4[C@H](C(=O)O)C4(C)C)n(Cc4ccc(Br)cc4)c3c2)n1` (racemic) [Example 133, racemic cis-3-{1-(4-Bromobenzyl)-6-[(6-methylpyridin-2-yl)methoxy]-1H-benzimidazol-2-yl}-2,2-dimethylcyclopropanecarboxylic acid], the Ki was about 1.5 µM.

For the compound `Cc1ccc(COc2ccc3nc([C@@H]4CCCC[C@@H]4C(=O)O)n(Cc4ccc(C#N)cc4)c3c2)nc1` (stereo in doubt) [Example 38, (1S*,2R*)-2-{1-(4-Cyanobenzyl)-6-[(5-methylpyridin-2-yl)methoxy]-1H-benzimidazol-2-yl}cyclohexanecarboxylic acid], the Ki is over 10 µM.

In the case of `CCC(CC)(Cc1nc2ccc(OCc3ccc(C)cn3)cc2n1Cc1ccc(C#N)cc1)C(=O)O` [Example 19, 2-({1-(4-Cyanobenzyl)-6-[(5-methylpyridin-2-yl)methoxy]-1H-benzimidazol-2-yl}methyl)-2-ethylbutanoic acid as the TFA salt], the inhibitory constant (Ki) was about 0.75 µM.

In the case of `CCC(CC)(Cc1nc2ccc(OCc3ccn(C)n3)cc2n1Cc1ccc(N2CCCCC2)cc1)C(=O)O` [Example 43, 2-Ethyl-2-({6-[(1-methyl-1H-pyrazol-3-yl)methoxy]-1-(4-piperidin-1-ylbenzyl)-1H-benzimidazol-2-yl}methyl)butanoic acid], the Ki was about 0.94 µM.

On to `CCC(CC)(Cc1nc2ccc(OCc3ccn(C)n3)cc2n1Cc1ccc(OC(F)(F)F)cc1)C(=O)O` [Example 50, 2-Ethyl-2-({6-[(1-methyl-1H-pyrazol-3-yl)methoxy]-1-[4-(trifluoromethoxy)benzyl]-1H-benzimidazol-2-yl}methyl)butanoic acid], for which the Ki was about 0.1 µM.

`Cn1ccc(COc2ccc3nc(CC(C)(C)C(=O)O)n(Cc4ccc(Br)cc4)c3c2)n1` [Example 107, 3-{1-(4-Bromobenzyl)-6-[(1-methyl-1H-pyrazol-3-yl)methoxy]-1H-benzimidazol-2-yl}-2,2-dimethylpropanoic acid]: the inhibition constant Ki is 0.43 µM.

Take `Cc1cccc(COc2ccc3nc(CC(C)(C)C(=O)O)n(Cc4ccc(Br)cc4)c3c2)n1` [Example 108, 3-{1-(4-Bromobenzyl)-6-[(6-methylpyridin-2-yl)methoxy]-1H-benzimidazol-2-yl}-2,2-dimethylpropanoic acid]: the inhibition constant Ki came out at 2.24 µM.

Another test deals with leukotriene pathway in human whole blood (LTB4). The test is described as follows: Human whole blood assay (LTB4 after calcium ionophore A23187 stimulation). Format: cell-based. The settings on record: Homo sapiens, human whole blood diluted 1:1 in RPMI, 15 min pre-incubation, A23187 7 μg/mL for 30 min at 37° Celsius. The method, boiled down:
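Heparinised human whole blood, diluted 1:1 in RPMI, was preincubated with compound for 15 min at 37° C. before stimulation with A23187 (7 μg/mL) for 30 min. Plasma LTB4 was measured by immunoassay kit and IC50 obtained by 4-parameter fit; single replicate per plate, blood from at least one donor.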
In the case of `Cc1ccc(COc2ccc3nc(C4CCCC[C@@H]4C(=O)O)n(Cc4ccc(C#N)cc4)c3c2)nc1` (mixture of isomers) [Example 18, racemic trans-2-{1-(4-Cyanobenzyl)-6-[(5-methylpyridin-2-yl)methoxy]-1H-benzimidazol-2-yl}cyclohexanecarboxylic acid as the TFA salt], the IC50 (as a rule, the point on the concentration scale where inhibition reaches its midpoint) was over 10 µM.

Consider `Cc1ccc(COc2ccc3nc(C4CCCC[C@H]4C(=O)O)n(Cc4ccc(C#N)cc4)c3c2)nc1` (mixture of isomers) [Example 37, racemic cis-2-{1-(4-Cyanobenzyl)-6-[(5-methylpyridin-2-yl)methoxy]-1H-benzimidazol-2-yl}cyclohexanecarboxylic acid as the TFA salt], for which the 50% inhibitory concentration (IC50) was determined as 0.68 µM.
